The record followed here is patent US20050209278A1, “Piperidinyl- and piperazinyl-sulfonylmethyl hydroxamic acids and their use as protease inhibitors” (priority 2002, published 2005).

The term IC50 denotes the concentration at which inhibition is half-maximal.

Structures can show the parent of a compound that is named as a salt.

In one assay the target is T1, MMP-1 (Homo sapiens, UniProt P03956).
T1 construct: made in house; host or cells: MMP-1-transfected HT-1080 cells (spent media)
T1 sequence (P03956 100-469): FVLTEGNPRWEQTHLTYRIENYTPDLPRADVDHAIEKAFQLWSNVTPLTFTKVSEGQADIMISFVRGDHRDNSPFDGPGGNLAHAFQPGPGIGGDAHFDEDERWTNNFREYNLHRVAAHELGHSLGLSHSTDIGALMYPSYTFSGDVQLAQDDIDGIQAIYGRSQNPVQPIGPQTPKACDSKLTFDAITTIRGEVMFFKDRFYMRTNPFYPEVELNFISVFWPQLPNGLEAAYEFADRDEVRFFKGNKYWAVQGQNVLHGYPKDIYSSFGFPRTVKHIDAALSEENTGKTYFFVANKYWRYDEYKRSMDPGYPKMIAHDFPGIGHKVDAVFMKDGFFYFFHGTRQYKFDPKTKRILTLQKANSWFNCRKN
The experiment in a line: In vitro MMP inhibition, IC50 determination (fluorogenic substrate I). In kind it is biochemical. The note with it: values in parenthesis; 4 μM substrate I; room temperature. How it is done: Several hydroxamic acids and salts thereof were analyzed in in vitro assays to determine their ability to inhibit the MMP cleavage of peptide substrates. […] and IC50 constants were calculated from the assayed hydroxamic acid-MMP interactions. Human recombinant MMP-1, MMP-2, MMP-9, MMP-13, and MMP-14 were used in this assay. All enzymes were prepared in Assignee's laboratories following usual laboratory procedures. Protocols for the preparation and use of these enzymes are available in the scientific literature. See, e.g., Enzyme Nomenclature (Academic Press, San Diego, Calif., 1992) (and the citations therein). See also, Freije et al., “Molecular cloning and expression of collagenase-3, a novel human matrix metalloproteinase produced by breast carcinomas,” J Biol. Chem., 269(24), 16766-16773 (1994). The MMP-1 proenzyme was purified from the spent media of MMP-1-transfected HT-1080 cells provided by Dr. Harold Welgus of Washington University (St. Louis, Mo.). The protein was purified on a zinc chelating column. All MMPs were activated using 4-aminophenylmercuric acetate (“APMA”, Sigma Chemical, St. Louis, Mo.) or trypsin. MMP-9 also was activated using human recombinant MMP-3 (purified in Assignee's laboratory following standard cloning and purification techniques). […] Substrate (I) was purchased from Baychem (Redwood City, Calif.), and substrate II was prepared Assignee's laboratory. Substrate I was used in the IC50 determination assays, while substrate II was used in the Ki determination assays. In the absence of MMP inhibitory activity, either substrate is cleaved at the Gly-Leu peptide bond. […] The stock solutions of the assayed hydroxamic acids (or salts thereof) were prepared in 1% dimethyl sulfoxide (DMSO). […] The experiment controls contained the same amount of Buffer A/DMSO as the assayed sample, but contained no hydroxamic acid (or salt thereof). The assays from which the IC50 determinations were made were performed as follows. […] Louis, Mo.). The assayed hydroxamic acid samples were incubated in MicrofluorTM White Plates (Dynatech, Chantilly, Va.) and analyzed on a Perkin Elmer […] plate reader (Norwalk, Conn.). The excitation wavelength was 328 nm, and the emission wavelength-415 nm. […] As stated in the previous paragraph, samples containing varying concentrations of the same assayed hydroxamic acid were prepared. Inhibition was measured as a reduction in fluorescent intensity as a function of MMP inhibitor concentration. […] All values in Table 2 are given in nM units. The IC50 measurements are in parenthesis.

The target of another assay is T2, MMP-9 (Homo sapiens, UniProt P14780).
T2 construct: made in house; host or cells: MMP-9-transfected HT1080 cells (spent media)
The assay is described as above. Format: biochemical. As to conditions: values in parenthesis; 4 μM substrate I; room temperature. How it is done:
Several hydroxamic acids and salts thereof were analyzed in in vitro assays to determine their ability to inhibit the MMP cleavage of peptide substrates. […] and IC50 constants were calculated from the assayed hydroxamic acid-MMP interactions. Human recombinant MMP-1, MMP-2, MMP-9, MMP-13, and MMP-14 were used in this assay. All enzymes were prepared in Assignee's laboratories following usual laboratory procedures. Protocols for the preparation and use of these enzymes are available in the scientific literature. See, e.g., Enzyme Nomenclature (Academic Press, San Diego, Calif., 1992) (and the citations therein). See also, Freije et al., “Molecular cloning and expression of collagenase-3, a novel human matrix metalloproteinase produced by breast carcinomas,” J Biol. Chem., 269(24), 16766-16773 (1994). The MMP-9 proenzyme was purified by gelatin Sepharose chromatography from spent media of MMP-9-transfected HT1080 cells provided by Dr. Howard Welgus of Washington University (St. Louis, Mo.). All MMPs were activated using 4-aminophenylmercuric acetate (“APMA”, Sigma Chemical, St. Louis, Mo.) or trypsin. MMP-9 also was activated using human recombinant MMP-3 (purified in Assignee's laboratory following standard cloning and purification techniques). […] Substrate (I) was purchased from Baychem (Redwood City, Calif.), and substrate II was prepared Assignee's laboratory. Substrate I was used in the IC50 determination assays, while substrate II was used in the Ki determination assays. In the absence of MMP inhibitory activity, either substrate is cleaved at the Gly-Leu peptide bond. […] The stock solutions of the assayed hydroxamic acids (or salts thereof) were prepared in 1% dimethyl sulfoxide (DMSO). […] The experiment controls contained the same amount of Buffer A/DMSO as the assayed sample, but contained no hydroxamic acid (or salt thereof). The assays from which the IC50 determinations were made were performed as follows. […] Louis, Mo.). The assayed hydroxamic acid samples were incubated in MicrofluorTM White Plates (Dynatech, Chantilly, Va.) and analyzed on a Perkin Elmer […] plate reader (Norwalk, Conn.). The excitation wavelength was 328 nm, and the emission wavelength-415 nm. […] As stated in the previous paragraph, samples containing varying concentrations of the same assayed hydroxamic acid were prepared. Inhibition was measured as a reduction in fluorescent intensity as a function of MMP inhibitor concentration. […] All values in Table 2 are given in nM units. The IC50 measurements are in parenthesis.

T2 sequence (P14780 107-707 limits assumed): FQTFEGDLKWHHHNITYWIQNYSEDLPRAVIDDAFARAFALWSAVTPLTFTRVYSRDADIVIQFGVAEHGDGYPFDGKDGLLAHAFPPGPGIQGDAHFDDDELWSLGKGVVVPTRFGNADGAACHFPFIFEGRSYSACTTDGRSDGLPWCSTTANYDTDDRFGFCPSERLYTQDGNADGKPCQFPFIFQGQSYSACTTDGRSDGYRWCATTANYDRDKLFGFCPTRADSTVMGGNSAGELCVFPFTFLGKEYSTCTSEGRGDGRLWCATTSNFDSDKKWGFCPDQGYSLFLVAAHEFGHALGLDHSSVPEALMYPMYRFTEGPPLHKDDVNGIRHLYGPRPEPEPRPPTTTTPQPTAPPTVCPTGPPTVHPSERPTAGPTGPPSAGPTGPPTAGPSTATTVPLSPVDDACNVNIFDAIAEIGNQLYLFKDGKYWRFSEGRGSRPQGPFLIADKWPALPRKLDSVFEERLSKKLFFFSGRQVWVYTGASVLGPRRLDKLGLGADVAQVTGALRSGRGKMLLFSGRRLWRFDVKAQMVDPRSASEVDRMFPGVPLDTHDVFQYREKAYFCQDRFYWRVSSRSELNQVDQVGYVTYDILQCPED

As for `CCCCCc1ccc(N2CCN(S(=O)(=O)C3(C(=O)NO)CCN(CCOC)CC3)CC2)cc1` [Example 6, N-Hydroxy-1-(2-methoxyethyl)-4-{[4-(4-pentylphenyl)piperazin-1-yl]sulfonyl}piperidine-4-carboxamide Dihydrochloride], the IC50 on MMP-1 is above 10000 nM; on MMP-9, 0.2 nM.

With `CCCCc1ccc(N2CCN(S(=O)(=O)C3(C(=O)NO)CCN(CCOC)CC3)CC2)cc1` [Example 5, 4-{[4-(4-butylphenyl)piperazin-1-yl]sulfonyl}-N-hydroxy-1-(2-methoxyethyl)piperidine-4-carboxamide Dihydrochloride], the IC50 at MMP-1 is above 10000 nM; on MMP-9, below 0.1 nM.

As for `O=C(NO)C1(S(=O)(=O)N2CCN(c3ccc(OCC4CC4)c(F)c3)CC2)CCN(C2CC2)CC1` [Example 10, 1-cyclopropyl-4-[[4-[4-(cyclopropylmethoxy)-3-fluorophenyl]-1-piperazinyl]sulfonyl]-N-hydroxy-4-piperidinecarboxamide, dihydrochloride], the concentration for half-maximal inhibition (IC50) on MMP-1 is above 10000 nM; on MMP-9, 0.3 nM.

With `CCCCOc1ccc(N2CCN(S(=O)(=O)C3(C(=O)NO)CCN(CCOC)CC3)CC2)cc1F` [Example 11, 4-[[4-(4-butoxy-3-fluorophenyl)-1-piperazinyl]sulfonyl]-N-hydroxy-1-(2-methoxyethyl)-4-piperidinecarboxamide, Dihydrochloride], the IC50 on MMP-1 is above 10000 nM; at MMP-9, 2.3 nM.

In the case of `CCCCCc1ccc(C2CCN(S(=O)(=O)C3(C(=O)NO)CCN(CCOC)CC3)CC2)cc1` [Example 15, N-hydroxy-1-(2-methoxyethyl)-4-{[4-(4-pentylpheyl)piperidin-1-yl]sulfonyl}piperidine-4-carboxamide Hydrochloride], the half-inhibitory concentration (IC50) is above 10000 nM on MMP-1 and 0.3 nM on MMP-9.
